From patent US20260008746A1, “CATIONIC LIPID COMPOUND WITH HIGH EFFICIENCY, LOW TOXICITY AND STABLE EXPRESSION, AND COMPOSITION COMPRISNG SAME” (HANGZHOU TIANLONG PHARMACEUTICAL CO., LTD, priority 2023, published 2026)
Several values for one entry are separate records, joined by “and”; a condition that tells them apart may be missing. Equal values may be shown once.

Key:
[1] = Determination of particle size and polydispersity index (PDI) of lipid nanoparticles by dynamic light scattering; type: physicochemical; details: LNP formulation of named cationic lipid/DSPC/cholesterol/DMG-PEG2000 49:10:39.5:1.5; for Particle size (nm): 90° scattering angle, 25° C
Procedure: The cationic lipids listed in Table 1 were dissolved in ethanol with DSPC (AVT (Shanghai) Pharmaceutical Technology Co., Ltd.), cholesterol (AVT (Shanghai) Pharmaceutical Technology Co., Ltd.) and DMG-PEG2000 according to a molar ratio of 49:10:39.5:1.5, respectively, to prepare lipid solution in ethanol. The lipid solution in ethanol was quickly added to citrate buffer (pH=4 to 5) by ethanol injection method, and vortexed for 30 s for later use. eGFP-mRNA (from Shanghai Biohub International Trade Co., Ltd) or Fluc-mRNA (from Shanghai Biohub International Trade Co., Ltd) was diluted in citrate buffer (pH=4 to 5) to give an aqueous mRNA solution. A certain volume of liposome solution and mRNA aqueous solution were used to prepare liposomes at a weight ratio of total lipids to mRNA of 15:1. The mixtures were sonicated at 25° C. for 15 min (with an ultrasonic frequency of 40 kHz and an ultrasonic power of 800 W). The resulting liposomes were diluted to 10 times volume with PBS, and then ultrafiltered with a 300 KDa ultrafiltration tube to remove ethanol. Then the volume was fixed to a certain volume with PBS to give an LNP formulation encapsulating eGFP-mRNA or Fluc-mRNA using cationic lipid/DSPC/cholesterol/DMG-PEG2000 (49:10:39.5:1.5 in molar percentage).
The particle size and polydispersity index (PDI) were determined by dynamic light scattering using Malvern laser particle size analyzer.
10 μL of the liposome solution was weighed, diluted to 1 mL with RNase-free deionized water, and added to the sample pool. Each sample was measured in triplicate. The measurement conditions were: 90° scattering angle, and 25° C.

293T cells [2] = assay: Fluorescent detection of Fluc-mRNA (cell transfection efficiency of LNP formulations); type: cell-based; details: for Relative light unit (RLU): LNP formulation containing 0.3 μg Fluc-mRNA, 96-well plate, 24 hours; for Multiples (YK-101): RLU of YK-101 / RLU of named substance; for Multiples (YK-107): RLU of YK-107 / RLU of named substance; for Multiples (YK-108): RLU of YK-108 / RLU of named substance; for Ratio relative to SM-102: RLU of named substance / RLU of SM-102
Method in brief: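 293T cells seeded at 10,000 per well, cultured overnight, then given LNP carrying 0.3 μg Fluc-mRNA (cationic:neutral:structured:PEG-lipid 49:10:39.5:1.5 molar). Incubated 24 h. Luciferase signal read with kit reagent on an IVIS imaging system.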

293T cells [3] = assay: Cell survival rate determination (CCK-8); type: cell-based; details: for Cell survival rate (%): LNP formulation containing 1.5 μg Fluc-mRNA, 24 hours, CCK-8, absorbance at 450 nm; for cell survival rate lower than that of YK-101: cell survival rate of YK-101 minus that of named substance; for cell survival rate lower than that of YK-107: cell survival rate of YK-107 minus that of named substance; for cell survival rate lower than that of YK-108: cell survival rate of YK-108 minus that of named substance
Method in brief: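 293T cells were seeded overnight at 10,000 cells/well in 96-well plates, then exposed for 24 h to LNP containing 1.5 μg Fluc-mRNA (cationic:neutral:structural:polymer-conjugated lipid, 49:10:39.5:1.5 molar) or to Lipofectamine 3000. Viability was read by CCK-8, 1 h incubation, absorbance 450 nm.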

BALB/C mice = assay: In vivo imaging of Fluc-mRNA expression in mice delivered by LNP formulations; details: for average radiation intensity, 6 h / average radiation intensity, 24 h / average radiation intensity, 48 h / average radiation intensity, 7 d: LNP containing 10 pg Fluc-mRNA, intramuscular, female BALB/C mice
Method in brief: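 Female BALB/C mice (4-6 weeks, 17-19 g) received LNP carrying […] Fluc-mRNA intramuscularly. Substrate was given intraperitoneally at 6 h, 24 h, 48 h and 7 d, and average radiance was imaged by IVIS 5 min later.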

[4] = highest multiple, time point not stated

Row | SMILES | PDI(%) [1] | Particle size (nm) [1] | Relative light unit (RLU) (293T cells [2]) | Multiples (YK-101) (293T cells [2]) | Multiples (YK-107) (293T cells [2]) | Multiples (YK-108) (293T cells [2]) | Ratio relative to SM-102 (293T cells [2]) | Cell survival rate (%) (293T cells [3]) | cell survival rate lower than that of YK-101 (293T cells [3]) | cell survival rate lower than that of YK-107 (293T cells [3]) | cell survival rate lower than that of YK-108 (293T cells [3]) | average radiation intensity of YK-101, times that of named substance (BALB/C mice; 6 h) | average radiation intensity of YK-107, times that of named substance (BALB/C mice; 6 h) | average radiation intensity of YK-108, times that of named substance (BALB/C mice; 6 h) | average radiation intensity of YK-101, times that of named substance (BALB/C mice; 24 h) | average radiation intensity of YK-107, times that of named substance (BALB/C mice; 24 h) | average radiation intensity of YK-108, times that of named substance (BALB/C mice; 24 h) | average radiation intensity of YK-101, times that of named substance (BALB/C mice; 48 h) | average radiation intensity of YK-107, times that of named substance (BALB/C mice; 48 h) | average radiation intensity of YK-108, times that of named substance (BALB/C mice; 48 h) | other results
1 | CCCCCCC(CCCCCC)CCOC(=O)CCCCCCCN(CCO)CCCCCCCC(=O)OCCC(CCCCCC)CCCCCC [Compound 23, bis(3-hexylnonyl)-8, 8′-((2-hydroxyethyl)azadialkyl)dioctanoate, reference compound] | 7.7% | 140 nm | 1290824 RLU | 15.75 | 17.32 | 19.10 | 0.84 | 70.91% | 19.21% | 19.54% | 18.95% | 2.5 times | 2.7 times | 3.4 times | 9.4 times | 11.6 times | 12.5 times | 5.6 times | 6.8 times | 7.0 times | average radiation intensity of YK-101, times that of named substance (BALB/C mice; 7 d): 2.1 times; average radiation intensity of YK-107, times that of named substance (BALB/C mice; 7 d): 2.3 times; average radiation intensity of YK-108, times that of named substance (BALB/C mice; 7 d): 2.4 times; average radiation intensity, 6 h (BALB/C mice; 6 h): 599850; average radiation intensity, 24 h (BALB/C mice; 24 h): 112670; average radiation intensity, 48 h (BALB/C mice; 48 h): 33060; average radiation intensity, 7 d (BALB/C mice; 7 d): 5863
2 | CCCCCCCCCCOC(=O)CCCN(CCCCCC(=O)OCC(CCCCCCCC)CCCCCCCC)CCOC(=O)CCCN(C)C [YK-126] | 15.1% | 260 nm | 219983 RLU | 92.44 | 101.65 | 112.10 | 0.14 | 25.03% | 60% and 65.09% | 60% and 65.42% | 60% and 64.83% | 9.6 times | 10.3 times | 13.0 times | 50.4 times | 62.2 times | 67.1 times | 27.9 times | 34.0 times | 34.6 times | cell transfection activity, times that of YK-125 (293T cells [2]): 1.3 times; fluorescence absorption value, times that of HHMA (293T cells [2]; RLU of named substance / RLU of HHMA): 0.11 times; fluorescence absorption value, times that of Lipofectamine 3000 (293T cells [2]; RLU of named substance / RLU of Lipofectamine 3000): 0.20 times; Fluc-mRNA expression signal intensity, times that of compound 21 (293T cells [2]; RLU of named substance / RLU of compound 21): 0.16 times; fluorescence absorption value, times that of compound 23 (293T cells [2]; RLU of named substance / RLU of compound 23): 0.17 times; difference from SM-102 in Fluc-mRNA fluorescence (GraphPad Prism analysis) (293T cells [2]; statistical comparison with SM-102): significant difference; cell survival rate lower than that of YK-122 (293T cells [3]): 54.12%; cell survival rate lower than that of YK-124 (293T cells [3]): 52.53%; average radiation intensity of YK-101, times that of named substance (BALB/C mice; 7 d): 13.9 times; average radiation intensity of YK-107, times that of named substance (BALB/C mice; 7 d): 15.2 times; average radiation intensity of YK-108, times that of named substance (BALB/C mice; 7 d): 16.2 times; average radiation intensity, 6 h (BALB/C mice; 6 h): 155160; average radiation intensity, 24 h (BALB/C mice; 24 h): 20939; average radiation intensity, 48 h (BALB/C mice; 48 h): 6656; average radiation intensity, 7 d (BALB/C mice; 7 d): 877; expression amount of mRNA in mice of YK-101, times that of named substance (BALB/C mice; [4]): 50 times; expression amount of mRNA in mice of YK-107, times that of named substance (BALB/C mice; [4]): 62 times
3 | CCCCCCCCCCCOC(=O)CCCCCN(CCO)CCCCCCCC(=O)OC(CCCCCCCC)CCCCCCCC [SM-102, reference compound] | 17.4% | 142 nm | 1534210 RLU | 13.25 | 14.58 | 16.07 | 1.00 | 68.17% | 21.95% | 22.28% | 21.69% | 2.2 times | 2.3 times | 2.9 times | 9.0 times | 11.1 times | 11.9 times | 5.8 times | 7.1 times | 7.2 times | average radiation intensity of YK-101, times that of named substance (BALB/C mice; 7 d): 2.1 times; average radiation intensity of YK-107, times that of named substance (BALB/C mice; 7 d): 2.3 times; average radiation intensity of YK-108, times that of named substance (BALB/C mice; 7 d): 2.4 times; average radiation intensity, 6 h (BALB/C mice; 6 h): 689570; average radiation intensity, 24 h (BALB/C mice; 24 h): 117750; average radiation intensity, 48 h (BALB/C mice; 48 h): 31900; average radiation intensity, 7 d (BALB/C mice; 7 d): 5834; expression amount of mRNA in mice of YK-108, times that of named substance (BALB/C mice; [4]): up to 11 times
